ChEMBL document CHEMBL1201862, “PubChem BioAssay data set” (2004)
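The compound was tested at five concentrations on cells cultured in 96-well plates, with a 48-hour exposure period. GI50: concentration for 50% inhibition of growth.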 Active and inactive are the calls of the source. Rule as the data show it: active = GI50 up to about 1.1 µM and inactive = higher.

What was measured:
Assay in all cases: NCI tumour cell line growth inhibition, 48 h
COLO 205 = tested on: COLO 205
DU-145 = tested on: DU-145
EKVX = tested on: EKVX
HCT-116 = tested on: HCT-116
K562 = tested on: K562
NCI-H23 = tested on: NCI-H23
NCI/ADR-RES = tested on: NCI/ADR-RES
OVCAR-5 = tested on: OVCAR-5
PC-3 = tested on: PC-3
SF-295 = tested on: SF-295
SK-MEL-28 = tested on: SK-MEL-28
SK-MEL-2 = tested on: SK-MEL-2
SK-OV-3 = tested on: SK-OV-3
TK-10 = tested on: TK-10
U-251 = tested on: U-251
UACC-257 = tested on: UACC-257
UACC-62 = tested on: UACC-62
Hs-578T = tested on: Hs-578T
Malme-3M = tested on: Malme-3M

Measured: GI50

CS(=O)(=O)OCOS(C)(=O)=O
inactive: COLO 205 75.3 µM | DU-145 59.6 µM | EKVX > 100 µM | HCT-116 > 100 µM | K562 > 100 µM | NCI-H23 69 µM | NCI/ADR-RES > 100 µM | OVCAR-5 > 100 µM | PC-3 > 100 µM | SF-295 > 100 µM | SK-MEL-28 > 100 µM | SK-MEL-2 > 100 µM | SK-OV-3 > 100 µM | TK-10 > 100 µM | U-251 > 100 µM | UACC-257 > 100 µM | UACC-62 > 100 µM

Nc1nc(-c2ccccc2)cc(-c2ccc(OCc3ccccc3)cc2O)n1
inactive: COLO 205 45.7 µM | DU-145 73.6 µM | EKVX 50.4 µM | HCT-116 28.8 µM | Hs-578T 37.1 µM | K562 43 µM | Malme-3M 24.2 µM | NCI-H23 38.3 µM | NCI/ADR-RES 29.4 µM | OVCAR-5 > 100 µM | PC-3 34.4 µM | SF-295 36.4 µM | SK-MEL-28 89.9 µM | SK-MEL-2 32.4 µM | TK-10 24.7 µM | U-251 31.8 µM | UACC-257 48.8 µM | UACC-62 64.7 µM

C=C[C@@H](C)[C@]1(C(=O)OC)CCCC12OCCO2
inactive: COLO 205 > 100 µM | EKVX > 100 µM | HCT-116 > 100 µM | K562 > 100 µM | Malme-3M > 100 µM | OVCAR-5 > 100 µM | SF-295 > 100 µM | SK-MEL-28 > 100 µM | SK-MEL-2 > 100 µM | SK-OV-3 > 100 µM | TK-10 > 100 µM | U-251 > 100 µM | UACC-257 > 100 µM | UACC-62 > 100 µM

COc1cc(O)c(C(=O)CC(C)=O)c(OC)c1
inactive: COLO 205 > 100 µM | EKVX > 100 µM | HCT-116 > 100 µM | K562 > 100 µM | Malme-3M > 100 µM | NCI-H23 > 100 µM | OVCAR-5 > 100 µM | SF-295 > 100 µM | SK-MEL-28 > 100 µM | SK-MEL-2 > 100 µM | SK-OV-3 > 100 µM | TK-10 > 100 µM | U-251 > 100 µM | UACC-257 > 100 µM | UACC-62 > 100 µM

COc1nc2c(c(=O)n1C)N=C(c1ccccc1)[C@H](C(CC(=O)c1ccccc1)c1ccccc1)C(c1ccccc1)N2 (some centres not stated)
inactive: COLO 205 98.9 µM | DU-145 > 100 µM | EKVX 22.2 µM | HCT-116 88.1 µM | K562 55.5 µM | NCI-H23 > 100 µM | NCI/ADR-RES 39.6 µM | OVCAR-5 > 100 µM | PC-3 42 µM | SF-295 70 µM | SK-MEL-28 > 100 µM | SK-MEL-2 > 100 µM | SK-OV-3 > 100 µM | U-251 > 100 µM | UACC-257 > 100 µM | UACC-62 > 100 µM

C=CCNC(=O)/C(Cc1cc(Br)c(OC)c(Br)c1O)=N\O
inactive: COLO 205 12.3 µM | DU-145 5.3 µM | EKVX 3.81 µM | HCT-116 3.01 µM | Hs-578T 1.32 µM | K562 2.37 µM | Malme-3M 1.34 µM | NCI-H23 4.16 µM | NCI/ADR-RES 2.44 µM | OVCAR-5 5.43 µM | PC-3 6.46 µM | SF-295 3.64 µM | SK-MEL-28 3.53 µM | SK-MEL-2 7.73 µM | TK-10 10.6 µM | U-251 4.53 µM | UACC-257 6.15 µM | UACC-62 8.75 µM

O=C1C[C@@H]2C(COC(=O)c3ccccc3)N(OCc3ccccc3)C[C@@H]2O1 (some centres not stated)
inactive: COLO 205 > 100 µM | EKVX > 100 µM | HCT-116 > 100 µM | K562 > 100 µM | Malme-3M > 100 µM | NCI-H23 > 100 µM | OVCAR-5 > 100 µM | SK-MEL-28 > 100 µM | SK-MEL-2 > 100 µM | SK-OV-3 > 100 µM | TK-10 > 100 µM | U-251 > 100 µM | UACC-257 > 100 µM | UACC-62 > 100 µM

CCCCCCCCCCCCC(SCCNC(=O)CCNC(=O)C(O)C(C)(C)COP(=O)(O)OP(=O)(O)OCC1OC(n2cnc3c(N)ncnc32)C(O)C1OP(=O)(O)O)C(=O)NCC(N)=O (configuration not stated)
inactive: COLO 205 49.2 µM | EKVX > 100 µM | HCT-116 41.3 µM | Malme-3M > 100 µM | NCI-H23 > 100 µM | OVCAR-5 > 100 µM | SF-295 > 100 µM | SK-MEL-28 > 100 µM | SK-MEL-2 > 100 µM | SK-OV-3 18.6 µM | TK-10 > 100 µM | U-251 34.9 µM | UACC-257 > 100 µM | UACC-62 > 100 µM

COC(=O)C1(C)C=C(Nc2ccccc2)C(=O)N1c1ccccc1 (configuration not stated)
inactive: EKVX > 100 µM | HCT-116 > 100 µM | K562 > 100 µM | Malme-3M > 100 µM | NCI-H23 > 100 µM | OVCAR-5 > 100 µM | SF-295 > 100 µM | SK-MEL-28 > 100 µM | SK-MEL-2 > 100 µM | SK-OV-3 > 100 µM | TK-10 > 100 µM | U-251 > 100 µM | UACC-257 > 100 µM | UACC-62 99.5 µM

C1=NN(Cc2ccccc2)C(N(Cc2ccccc2)Cc2ccccc2)N1 (configuration not stated)
inactive: COLO 205 16.9 µM | EKVX 20.3 µM | HCT-116 9.31 µM | K562 8.91 µM | Malme-3M 12.2 µM | NCI-H23 16.9 µM | OVCAR-5 13 µM | SF-295 14.5 µM | SK-MEL-28 19 µM | SK-MEL-2 16.4 µM | SK-OV-3 15.4 µM | TK-10 29.3 µM | U-251 16.7 µM | UACC-257 16.7 µM | UACC-62 14 µM

COc1cc(CNC2=NCCC2)cc(OC)c1OC
inactive: COLO 205 > 100 µM | DU-145 > 100 µM | EKVX 56.1 µM | HCT-116 39.6 µM | K562 65.5 µM | Malme-3M > 100 µM | NCI-H23 > 100 µM | NCI/ADR-RES > 100 µM | OVCAR-5 > 100 µM | PC-3 > 100 µM | SF-295 > 100 µM | SK-MEL-28 > 100 µM | SK-OV-3 > 100 µM | TK-10 > 100 µM | U-251 53.3 µM | UACC-257 > 100 µM | UACC-62 > 100 µM

O=S(O)CCCSSCCCCSSCCCS(=O)O
inactive: COLO 205 > 100 µM | EKVX 34.4 µM | HCT-116 > 100 µM | K562 > 100 µM | Malme-3M > 100 µM | NCI-H23 > 100 µM | OVCAR-5 > 100 µM | SF-295 > 100 µM | SK-MEL-28 > 100 µM | SK-MEL-2 > 100 µM | SK-OV-3 > 100 µM | TK-10 > 100 µM | U-251 > 100 µM | UACC-257 > 100 µM | UACC-62 > 100 µM

O=c1/c(=C/c2ccc3c(c2)OCO3)sc2nnc(Cc3ccccc3)n12
inactive: COLO 205 > 100 µM | EKVX > 100 µM | HCT-116 > 100 µM | K562 > 100 µM | Malme-3M > 100 µM | NCI-H23 > 100 µM | OVCAR-5 > 100 µM | SF-295 > 100 µM | SK-MEL-28 > 100 µM | SK-MEL-2 > 100 µM | SK-OV-3 > 100 µM | TK-10 > 100 µM | U-251 > 100 µM | UACC-257 13.1 µM | UACC-62 > 100 µM
